{
  "source": "paper PMC10787068",
  "about": "“Targeting the Mitochondrial Chaperone TRAP1 Alleviates Vascular Pathologies in Ischemic Retinopathy” (Advanced Science, 2023)",
  "assay_type_in_all_cases": "cell-based, human",
  "key": {"HIF1α": {"system": "HIF1α", "test": "HIF1α degradation in MIO‐M1 cells under hypoxia (western blotting)", "conditions": "MIO‐M1 cells, 6 h under hypoxia"}, "calpain": {"system": "calpain", "test": "Calpain activity assay in MIO‐M1 cells", "conditions": "3 µM gamitrinib or 0.5 µM MitoQ, 6 h under hypoxia, fluorogenic calpain substrate, n = 4", "protocol": "Figure 5 TRAP1 inhibition induces mPTP opening, mitochondrial calcium discharge, and calpain‐1 activation. A) Visualization of cytoplasmic calcium. Fluo‐4 AM‐labeled MIO‐M1 cells were incubated with the TRAP1 inhibitors gamitrinib and MitoQ^[ [32], [41] ^] for 6 h or thapsigargin for 30 min under hypoxia, and analyzed by confocal microscopy. Scale bars, 10 µm and 2 µm (inset). […] MIO‐M1 cells were treated with a TRAP1 inhibitor, 3 µM gamitrinib or 0.5 µM MitoQ, for 6 h under hypoxia (n = 4). Enzyme activity was measured using a fluorogenic calpain substrate as described in the Experimental Section. C) Restored HIF1α expression upon CypD inhibition. MIO‐M1 cells were incubated with control or CypD‐targeting siRNAs, treated with the TRAP1 inhibitor MitoQ for 6 h under hypoxia, harvested, and analyzed by western blotting. Black and red arrows indicate pro and autolyzed forms of calpain‐1, respectively. […] MIO‐M1 cells were incubated with TRAP1‐targeting siRNAs for 48 h, exposed to hypoxia for 6 h, harvested, and analyzed by qPCR (n = 4). […] Cells were then analyzed by flow cytometry to detect cytoplasmic calcium. […] MIO‐M1 cells were incubated with TRAP1 inhibitors, 3 µM gamitrinib, and 0.5 µM MitoQ, and a cell‐permeable calcium chelator, BAPTA (10 µM), for 6 h as indicated under hypoxia and analyzed by western blotting. […] Data information: Data are expressed as mean ± SEM. […]"}, "Trap1 KO MIO-M1 cells": {"system": "Trap1 KO MIO-M1 cells", "test": "TRAP1 inhibitor effects in Trap1 KO MIO‐M1 cells", "protocol": "MIO‐M1 Trap1 KO cell lines were generated using CRISPR/Cas9‐derived RNA‐guided endonucleases (Toolgen; Seoul, Republic of Korea). MIO‐M1 cells were co‐transfected with the Cas9 vector and TRAP1‐sgRNA expression vector (sgRNA sequence 1; 5′‐[…]‐3′ and sequence 2; 5′‐[…]‐3′) using jetPRIME transfection reagent (Polyplus; Illkirch‐Graffenstaden, France). Transfected cells were selected in culture medium containing […] puromycin (Sigma). Single‐cell colonies were collected using a cloning cylinder (I.D. × H 6.4 mm × 8 mm; Sigma) and analyzed using T7 endonuclease I to confirm Trap1 KO.\nSupplementary Figure 16. Calpain-1 autolysis and HIF1α degradation in Trap1 […]\nA) HIF1α degradation and calpain-1 autolysis in Trap1 knockout (KO) MIO-M1 cells. Trap1 KO MIO-M1 cells were generated as described in the Experimental Section and incubated in hypoxia for 6 hr, followed by analysis using western blotting. Under hypoxia, HIF1α degradation and autoproteolysis of calpain-1 were found in Trap1 KO MIO-M1 cells, when compared with wild type (WT) cells. […]\ncell lines were established using MIO-M1 cells. WT and KO cells were incubated with MitoQ for 6 hr under hypoxia and analyzed by western blotting. Trap1 KO reduced the expression of […]\nQuantification of the HIF1α protein level. HIF1α western blot density was analyzed and compared. Data are expressed as mean ± SEM from four independent experiments.\nC) Cytoplasmic calcium concentration. WT and Trap1-KO MIO-M1 cells were labeled with […]\nFluo-4 AM, incubated with 3 μM gamitrinib or 1 μM MitoQ for 6 hr under hypoxia, collected, and analyzed by flow cytometry. Data information: Data are expressed as mean ± SEM.\nStudent t-test, ***P < 0.001; ns, not significant. […]"}},
  "note": "“Also recorded” adds a separate entry of the source.",
  "data": [
    {"smiles": "COC1=C(OC)C(=O)C(CCCCCCCCCC[P+](c2ccccc2)(c2ccccc2)c2ccccc2)=C(C)C1=O", "note": "[MitoQ, mitoquinone]", "values": [
      {"measurement": "IC50", "setting": "HIF1α; Homo sapiens, western blot band intensity, n = 4, mean ± SEM", "value": "77 ± 16", "unit": "nM"},
      {"measurement": "potency in inducing the degradation of HIF1α relative to gamitrinib", "setting": "HIF1α", "value": "more than 10 fold"},
      {"measurement": "calpain enzyme activity", "setting": "calpain", "value": "Calpain activation"},
      {"measurement": "cytosolic calcium concentration in Trap1−/− cells", "setting": "Trap1 KO MIO-M1 cells; 3 μM gamitrinib or 1 μM MitoQ, 6 hr under hypoxia, Fluo-4 AM flow cytometry", "value": "did not affect"},
      {"measurement": "HIF1α expression in Trap1−/− cells", "setting": "Trap1 KO MIO-M1 cells; 6 hr under hypoxia, western blotting", "value": "not further affected; also recorded: did not affect"},
      {"measurement": "calpain‐1 activation in Trap1−/− cells", "setting": "Trap1 KO MIO-M1 cells; hypoxia", "value": "did not affect"}
    ]}
  ]
}
